The values that follow come from US8071584B2 (GlaxoSmithKline LLC, priority 2007, dated 2011).

The test system of one experiment is human monocyte stimulated cytokine production (TNF-α). In words: Monocyte assay (LPS-stimulated TNF-α production). Format: cell-based. The settings on record: 300 nM, human monocytes, LPS. As for the experimental part: Effect of IKK-β inhibition on human monocyte stimulated cytokine production was assessed as follows: Monocytes were isolated from heparinized whole blood by Ficoll gradient, followed by purification of CD14+ cells using MACS magnetic cell separation beads. Isolated monocytes were then adhered to 96-well culture plates at 1×10^6 cells/mL in RPMI 1640 10% FBS (JRH Biosciences, Lenexa Kans.) for 2 h. Test compounds are added to the wells 30 minutes prior to stimulation with a final vehicle concentration of 0.1% DMSO. Monocytes were activated by the addition of 200 ng/mL endotoxin (LPS; E. coli serotype 026:B6) (Sigma, St. Louis, Mo.) and incubated for 24 hrs at 37 C. Cell-free supernates were analyzed by Alphascreen™ (Perkin Elmer, Waltham, Mass.) for TNF-α using R&D Systems matched pair Abs. Viability of the cells was determined by 10% trypan blue exclusion.
The molecule `NC(=O)c1cc(-c2csc(CN3CCCCCC3)c2)cc2c(C3CCS(=O)(=O)C3)c[nH]c12` (stereo not shown) [Example 186, 3-(1,1-Dioxidotetrahydro-3-thienyl)-5-[5-(hexahydro-1H-azepin-1-ylmethyl)-3-thienyl]-1H-indole-7-carboxamide] came in with an inhibition at 0.3 µM of 0 to 100%.

Turning to `NC(=O)c1cc(-c2cccs2)cc2c(C3CCCS(=O)(=O)C3)c[nH]c12` (stereo not shown) [Example 222, 3-(1,1-Dioxidotetrahydro-2H-thiopyran-3-yl)-5-(2-thienyl)-1H-indole-7-carboxamide], the inhibition at 0.3 µM was 0 to 100%.

With `NC(=O)c1cc(-c2csc(CN3CCCCCC3)c2)cc2c(C3CC4CCC(C3)S4(=O)=O)c[nH]c12` (stereo not drawn) [Example 208, 3-[(3-exo)-8,8-Dioxido-8-thiabicyclo[3.2.1]oct-3-yl]-5-[5-(hexahydro-1H-azepin-1-ylmethyl)-3-thienyl]-1H-indole-7-carboxamide], the inhibition at 0.3 µM lay within 0 to 100%.

In the case of `NC(=O)c1cc(-c2ccoc2)cc2c(C3CCCS(=O)(=O)C3)c[nH]c12` (stereo not shown) [Example 217, 3-(1,1-Dioxidotetrahydro-2H-thiopyran-3-yl)-5-(3-furanyl)-1H-indole-7-carboxamide], the inhibition at 0.3 µM was in the range of 0 to 100%.

Molecule `CN(CCOC(C)(C)C)Cc1cc(-c2cc(C(N)=O)c3[nH]cc(C4CCS(=O)(=O)CC4)c3c2)cs1` [Example 77, 5-(5-{[{2-[(1,1-Dimethylethyl)oxy]ethyl}(methyl)amino]methyl}-3-thienyl)-3-(1,1-dioxidotetrahydro-2H-thiopyran-4-yl)-1H-indole-7-carboxamide] had an inhibition at 0.3 µM of 0 to 100%.

The same experiment, now with this note: human CD14+ monocytes, 200 ng/mL LPS, 24 hrs, values given as 'about', read-out: pIC50 in the monocyte assay (converted).
For the molecule `CC(C)[C@H]1C[C@H](c2c[nH]c3c(C(N)=O)cc(-c4cccs4)cc23)CCS1(=O)=O` (racemic) [Example 245, (racemic)-3-[trans-2-(1-Methylethyl)-1,1-dioxidotetrahydro-2H-thiopyran-4-yl]-5-(2-thienyl)-1H-indole-7-carboxamide], the IC50 is 5.01 to 1000 nM.

Turning to `CN(C)c1ccc(-c2cc(C(N)=O)c3[nH]cc(C4CCS(=O)(=O)CC4)c3c2)cn1` [Example 67, 5-[6-(Dimethylamino)-3-pyridinyl]-3-(1,1-dioxidotetrahydro-2H-thiopyran-4-yl)-1H-indole-7-carboxamide], the IC50 is 5.01 to 1000 nM.

On to `NC(=O)c1cc(-c2nccs2)cc2c(C3CCS(=O)(=O)CC3)c[nH]c12` [Example 85, 3-(1,1-Dioxidotetrahydro-2H-thiopyran-4-yl)-5-(1,3-thiazol-2-yl)-1H-indole-7-carboxamide], for which the IC50 was 5.01 to 1000 nM.

As to `NC(=O)c1cc(-c2ccccc2)cc2c(CC3CCS(=O)(=O)C3)c[nH]c12` (stereo not shown) [Example 259, 3-[(1,1-Dioxidotetrahydro-3-thienyl)methyl]-5-phenyl-1H-indole-7-carboxamide], the IC50 is 5.01 to 1000 nM.

`CC1(C)CC(c2c[nH]c3c(C(N)=O)cc(-c4ccc(CN5CCCC5)s4)cc23)CCS1(=O)=O` (stereo not shown) [Example 235, 3-(2,2-Dimethyl-1,1-dioxidotetrahydro-2H-thiopyran-4-yl)-5-[5-(1-pyrrolidinylmethyl)-2-thienyl]-1H-indole-7-carboxamide]: the IC50 was 5.01 to 1000 nM.

`CC1(C)CC(c2c[nH]c3c(C(N)=O)cc(-c4ccsc4)cc23)CCS1(=O)=O` (stereo not shown) [Example 227, 3-(2,2-Dimethyl-1,1-dioxidotetrahydro-2H-thiopyran-4-yl)-5-(3-thienyl)-1H-indole-7-carboxamide]: the IC50 was 5.01 to 1000 nM.

For `NC(=O)c1cc(-c2ccc3sccc3c2)cc2c(C3CCS(=O)(=O)C3)c[nH]c12` (stereo not shown) [Example 191, 5-(1-Benzothien-5-yl)-3-(1,1-dioxidotetrahydro-3-thienyl)-1H-indole-7-carboxamide], the IC50 was 5.01 to 1000 nM.

On to `CC(C)[C@H]1C[C@H](c2c[nH]c3c(C(N)=O)cc(-c4ccco4)cc23)CCS1(=O)=O` (racemic) [Example 244, (racemic)-5-(2-Furanyl)-3-[trans-2-(1-methylethyl)-1,1-dioxidotetrahydro-2H-thiopyran-4-yl]-1H-indole-7-carboxamide], for which the IC50 was 5.01 to 1000 nM.

Regarding `NC(=O)c1cc(-c2ccccc2)cc2c([C@H]3CCS(=O)(=O)[C@@H](c4ccccc4)C3)c[nH]c12` (racemic) [Example 252, 3-(1,1-Dioxido-2-phenyltetrahydro-2H-thiopyran-4-yl)-5-phenyl-1H-indole-7-carboxamide], the IC50 is 5.01 to 1000 nM.

Consider `COCc1ccc(-c2cc(C(N)=O)c3[nH]cc(C4CCS(=O)(=O)CC4)c3c2)s1` [Example 98, 3-(1,1-Dioxidotetrahydro-2H-thiopyran-4-yl)-5-{5-[(methyloxy)methyl]-2-thienyl}-1H-indole-7-carboxamide], for which the IC50 is 5.01 to 1000 nM.

Turning to `CC1(C)CC(c2c[nH]c3c(C(N)=O)cc(-c4ccccc4)cc23)CCS1(=O)=O` (stereo not shown) [Example 226, 3-(2,2-Dimethyl-1,1-dioxidotetrahydro-2H-thiopyran-4-yl)-5-phenyl-1H-indole-7-carboxamide], the IC50 was 5.01 to 1000 nM.

For `CC1(C)CC(c2c[nH]c3c(C(N)=O)cc(-c4csc(CN5CCC5)c4)cc23)CCS1(=O)=O` (stereo not shown) [Example 234, 5-[5-(1-Azetidinylmethyl)-3-thienyl]-3-(2,2-dimethyl-1,1-dioxidotetrahydro-2H-thiopyran-4-yl)-1H-indole-7-carboxamide], the IC50 is 5.01 to 1000 nM.

Consider `CC(C)[C@H]1C[C@H](c2c[nH]c3c(C(N)=O)cc(-c4ccsc4)cc23)CCS1(=O)=O` (racemic) [Example 241, (racemic)-3-[trans-2-(1-Methylethyl)-1,1-dioxidotetrahydro-2H-thiopyran-4-yl]-5-(3-thienyl)-1H-indole-7-carboxamide], for which the IC50 is 5.01 to 1000 nM.

For the molecule `CC(C)[C@H](C)NCc1cccc(-c2cc(C(N)=O)c3[nH]cc(C4CCS(=O)(=O)CC4)c3c2)c1` [Example 80, 5-[3-({[(1S)-1,2-Dimethylpropyl]amino}methyl)phenyl]-3-(1,1-dioxidotetrahydro-2H-thiopyran-4-yl)-1H-indole-7-carboxamide], the IC50 was 5.01 to 1000 nM.

Consider `COC(=O)c1cc(-c2ccc(F)cc2)cc2c([C@H]3CCSC3)c[nH]c12` [Example 173, methyl 5-(4-fluorophenyl)-3-[(3R)-tetrahydro-3-thienyl]-1H-indole-7-carboxylate], for which the IC50 was 5.01 to 1000 nM.

On to `CC(C)[C@@H]1C[C@H](c2c[nH]c3c(C(N)=O)cc(-c4ccsc4)cc23)CCS1(=O)=O` (racemic) [Example 246, (racemic)-3-[cis-2-(1-Methylethyl)-1,1-dioxidotetrahydro-2H-thiopyran-4-yl]-5-(3-thienyl)-1H-indole-7-carboxamide], for which the IC50 was 5.01 to 1000 nM.

In the case of `CCN(C)Cc1cc(-c2cc(C(N)=O)c3[nH]cc(C4CCS(=O)(=O)CC4)c3c2)cs1` [Example 75, 3-(1,1-Dioxidotetrahydro-2H-thiopyran-4-yl)-5-(5-{[ethyl(methyl)amino]methyl}-3-thienyl)-1H-indole-7-carboxamide], the IC50 was 5.01 to 1000 nM.

In the case of `NC(=O)c1cc(-c2ccsc2)cc2c([C@@H]3CCS(=O)(=O)[C@H](c4ccccc4)C3)c[nH]c12` [Example 247, 3-[(2S,4R)1,1-dioxido-2-phenyltetrahydro-2H-thiopyran-4-yl]-5-(3-thienyl)-1H-indole-7-carboxamide], the IC50 was 5.01 to 1000 nM.

For the molecule `NC(=O)c1cc(-c2csc(CN3CCCC3)c2)cc2c(C3CCS(=O)(=O)C3)c[nH]c12` (stereo not shown) [Example 187, 3-(1,1-Dioxidotetrahydro-3-thienyl)-5-[5-(1-pyrrolidinylmethyl)-3-thienyl]-1H-indole-7-carboxamide], the IC50 is 5.01 to 1000 nM.

Take `COCCN(C)Cc1cc(-c2cc(C(N)=O)c3[nH]cc(C4CCS(=O)(=O)CC4)c3c2)cs1` [Example 71, 3-(1,1-Dioxidotetrahydro-2H-thiopyran-4-yl)-5-[5-({methyl[2-(methyloxy)ethyl]amino}methyl)-3-thienyl]-1H-indole-7-carboxamide]: the IC50 was 5.01 to 1000 nM.

`CC1(C)CC(c2c[nH]c3c(C(N)=O)cc(-c4ccc(S(=O)(=O)N5CCCC5)s4)cc23)CCS1(=O)=O` (stereo not shown) [Example 239, 3-(2,2-Dimethyl-1,1-dioxidotetrahydro-2H-thiopyran-4-yl)-5-[5-(1-pyrrolidinylsulfonyl)-2-thienyl]-1H-indole-7-carboxamide]: the IC50 is 5.01 to 1000 nM.

As for `NC(=O)c1cc(-c2ccco2)cc2c([C@H]3CCS(=O)(=O)[C@@H](c4ccccc4)C3)c[nH]c12` (racemic) [Example 251, 3-(1,1-Dioxido-2-phenyltetrahydro-2H-thiopyran-4-yl)-5-(2-furanyl)-1H-indole-7-carboxamide], the IC50 was 5.01 to 1000 nM.

`CC1(C)CC(c2c[nH]c3c(C(N)=O)cc(-c4ccoc4)cc23)CCS1(=O)=O` (stereo not shown) [Example 228, 3-(2,2-Dimethyl-1,1-dioxidotetrahydro-2H-thiopyran-4-yl)-5-(3-furanyl)-1H-indole-7-carboxamide]: the IC50 was 5.01 to 1000 nM.

For the molecule `CN(C)Cc1cc(-c2cc(C(N)=O)c3[nH]cc(C4CCS(=O)(=O)CC4)c3c2)cs1` [Example 73, 5-{5-[(Dimethylamino)methyl]-3-thienyl}-3-(1,1-dioxidotetrahydro-2H-thiopyran-4-yl)-1H-indole-7-carboxamide], the IC50 is 5.01 to 1000 nM.

Take `NC(=O)c1cc(-c2cccs2)cc2c([C@H]3CCS(=O)(=O)[C@@H](c4ccccc4)C3)c[nH]c12` (racemic) [Example 249, 3-(1,1-Dioxido-2-cis-phenyltetrahydro-2H-thiopyran-4-yl)-5-(2-thienyl)-1H-indole-7-carboxamide]: the IC50 was 5.01 to 1000 nM.

For `NC(=O)c1cc(-c2ccoc2)cc2c(CC3CCS(=O)(=O)CC3)c[nH]c12` [Example 253, 3-[(1,1-dioxidotetrahydro-2H-thiopyran-4-yl)methyl]-5-(3-furanyl)-1H-indole-7-carboxamide], the IC50 was 5.01 to 1000 nM.
